PubChem BioAssay AID179 (DTP/NCI, 2004)
Active and inactive are the calls of the source.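 How the source made its calls: active means compounds giving half or more protection of infected cells from virus-caused growth loss, again on retest; inactive means the rest.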 Where a SMILES comes first, the peptide text is derived from it. The star is where a group is joined. Boc = CC(C)(C)OC(=O)*; OBn = c1ccc(CO*)cc1

Tested on: CEM cells HIV-1 protection, formazan growth assay
Test: NCI AIDS Antiviral Assay
Conditions: for IC50: measured here: growth of uninfected CEM cells
Outline: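 Human CEM cells, uninfected and HIV-1-infected, received five drug concentrations, and growth was read by soluble formazan assay. Compounds giving at least 50% protection were retested; reproducible 100% protection defined confirmed active.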

| SMILES | EC50 [µM] | IC50 [µM] | outcome |
| --- | --- | --- | --- |
| COc1ccc(C2=CC(C(C)=C(C(N)=O)C(N)=O)C=C(c3ccc(Br)cc3)C2)c(OC)c1 (stereo unspecified) | > 200 | 75.9 | – |
| Cc1ccccc1N=Nc1ccc(N/N=C2/CCCNC2=O)c(C)c1 | > 200 | 182 | – |
| COC(=O)/C=C(C)/C=C/c1cc(C(C)=O)c(C)o1 | > 145 | 102 | – |
| C1CCC(N2OC23CCCCC3)CC1 (stereo unspecified) | – | – | inactive |
| CC(=O)O[C@H]1CC[C@@]2(C)C(=CC[C@@H]3C2CC[C@]2(C)Nc4c(cnn4-c4ccccc4)CC32)C1 (stereo partly specified) | – | – | inactive |
| CNC(=O)OC(C)CN1c2ccccc2Sc2ccc(Cl)cc21 (stereo unspecified) | > 200 | 26.9 | – |
| CN1CCCCC(C(O)(c2ccccc2)c2ccccc2)C1=O (stereo unspecified) | > 115 | 0.363 | – |
| Cc1c(-c2ccc(-c3ccccc3F)cc2)nc2ccc(F)cc2c1C(=O)O | > 631 | 0.2 | – |
| C=CCNC(=S)/N=C1\N=S(C)(=O)c2ccccc21 (stereo unspecified) | > 891 | > 891 | – |
| CCOC(NC(=O)CC)(C(F)(F)F)C(F)(F)F | – | – | inactive |
| Cc1cc(C)c2c(c1)sc1n[nH]c(=S)n12 | > 63.1 | > 63.1 | – |
| CCC/C(=N/OC(=O)N(C)C)c1ccccc1 | > 200 | 135 | – |
| CSc1nc(NC2OC(COC(C)=O)C(OC(C)=O)C(OC(C)=O)C2OC(C)=O)c(N=CC=Nc2c(NC3OC(COC(C)=O)C(OC(C)=O)C(OC(C)=O)C3OC(C)=O)nc(SC)[nH]c2=O)c(=O)[nH]1 (stereo unspecified) | – | – | inactive |
| O=C(NC1CC(NC(=O)OCc2ccccc2)C2c3ccccc3C12)OCc1ccccc1 (stereo unspecified) | – | – | inactive |
| O=S(=O)(/C=N\N=P(c1ccccc1)(c1ccccc1)c1ccccc1)c1ccccc1-c1ccccc1 | > 200 | 107 | – |
| Cc1cc(NS(=O)(=O)c2ccc(NC(=O)c3cccc4c(Nc5ccc(S(=O)(=O)Nc6cc(C)on6)cc5)c5ccc(Cl)cc5nc34)cc2)no1 | > 240 | 135 | – |
| Cn1c2c(c(=O)n(C)c1=O)C(C(=O)O)CC(=O)N2 (stereo unspecified) | > 200 | 170 | – |
| N#CC1C(C#N)C2CC1C1N=NN(c3ccccc3)C21 (stereo unspecified) | > 200 | > 200 | – |
| CC(NC(=O)C(=O)N/N=C1\CC(c2ccccc2)Sc2ccccc21)c1ccccc1 (stereo unspecified) | – | – | inactive |
| CON(C(=O)OC(C)(C)C)c1ccccc1 | 61.7 | > 200 | – |
| CC1Oc2cc3c(-c4c(O)cc(O)c5c(O)c6c(cc45)OC(C)C(C)C6=O)c(O)cc(O)c3c(O)c2C(=O)C1C (stereo unspecified) | > 34.7 | 0.38 | – |
| CCOC(=O)C(C)(c1c(C)[nH]c2ccccc12)c1c(C)[nH]c2ccccc12 | – | – | inactive |
| O=[N+]([O-])c1ccc(S(=O)(=O)NN=C2CCCCC2)cc1 | > 316 | 178 | – |
| CC(=O)OC1C(CN2CCOC2=O)OC(n2cc(C)c(=O)[nH]c2=O)C1OC(C)=O (stereo unspecified) | > 200 | > 200 | – |
| C[N+]12CCCCC1C(CN1C(=O)Cc3c4ccccc4c(c4ccccc34)CC1=O)CCC2 (stereo unspecified) | > 200 | > 200 | – |
| NCCSSc1ccccc1C(=O)O | > 200 | > 200 | – |
| N=C1CSC2=NC3=C(CCC/C3=C\c3ccccc3)C(c3ccccc3)N12 (stereo unspecified) | > 18.6 | > 18.6 | – |

| SMILES | EC50 [µM] | IC50 [µM] | outcome |
| --- | --- | --- | --- |
| c1ccc(Nc2cc(Nc3ccccc3)cc(Nc3ccccc3)c2)cc1 | > 200 | 26.3 | – |
| Oc1cccc2c1NC1=C(CCC/C1=C\c1ccccc1)C2 | > 9.33 | > 9.33 | – |
| CCOC(=O)c1cnc2sc3ccc4ccccc4c3n2c1=O | > 27.5 | > 27.5 | – |
| O=C(Nc1ccc(F)cc1)C(=O)C(C1OC(=O)c2ccccc21)[N+](=O)[O-] (stereo unspecified) | > 692 | 355 | – |
| COc1cc(CS(=O)c2ccc(O)cc2)cc(OC)c1OC (stereo unspecified) | > 200 | > 200 | – |
| O=C(O)[C@H]1[C@@H](C2CCCCC2)O[C@@H](C2CCCCC2)O[C@H]1C(F)(F)F | > 200 | 191 | – |
| CON(C)C(C#N)=C(C#N)C#N | > 200 | > 200 | – |
| Cc1ccc(N=Nc2ccc(N(CCC#N)CCC#N)cc2C)c(Br)c1 | > 3.55 | > 3.55 | – |
| c1ccc(N=c2nc(N3CCOCC3)ss2)cc1 | – | – | inactive |
| O=c1[nH]c2cc([N+](=O)[O-])ccc2nc1/C(=N/Nc1ccccc1)C(O)c1ccccc1Cl (stereo unspecified) | > 363 | 355 | – |
| C[n+]1cn(C2=C([O-])c3ccccc3C(=O)/C2=N\S(=O)(=O)c2ccccc2)c2ccccc21 | > 151 | 126 | – |
| O=[N+]([O-])c1ccc2c(c1)C1=C(CO2)Cc2ccccc2O1 | – | – | inactive |
| c1ccc2c3csc4ccccc4c-3nc2c1 | – | – | inactive |
| Cc1cc(=O)[nH]c(NNC(C#N)c2ccc(O)cc2)n1 (stereo unspecified) | > 182 | > 182 | – |
| C[C@]12CCC3=NCCCN3C1=CC[C@@H]1[C@@H]2CC[C@@]2(C)[C@H]1CC[C@]2(C)O | > 47.9 | > 47.9 | – |
| C=CCC1(CC(=O)O)CC=CCC12OCCO2 (stereo unspecified) | > 200 | > 200 | – |
| CCC(C)C(NC(=O)C(CCCC(N)=O)NC(=O)CNC(=O)C(NC(=O)C(NC(=O)C(NC(=O)C(Cc1ccccc1)NC(=O)C(C)NC(=O)C(CCCNC(=N)N)NC(=O)CNC(=O)C1CCCN1C(=O)CNC(=O)C(CCCNC(=N)N)NC(=O)C(CCCC(N)=O)NC(=O)C(NC(=O)C(CCCNC(=N)N)NC(=O)C(NC(=O)C(COC1OC(CO)C(O)C(O)C1NC(C)=O)NC(=O)C(CCCCN)NC(=O)C(CCCNC(=N)N)NC(=O)C(NC(=O)C(CC(N)=O)NC(=O)C(N)CC(N)=O)C(C)O)C(C)CC)C(C)CC)C(C)C)C(C)O)C(C)CC)C(=O)NCC(N)=O (stereo unspecified) | > 50.1 | > 50.1 | – |
| C=C(C)S(=O)(=O)c1ccccc1 | – | – | inactive |
| Nc1nn2cc3c(nc2c1N=Nc1ccccc1)CCCCC3 | > 200 | > 200 | – |
| Nc1ccc(/C=C/c2ccc(N=Nc3ccc(/C=C/c4ccc(N)cc4S(=O)(=O)O)c(S(=O)(=O)O)c3)cc2S(=O)(=O)O)c(S(=O)(=O)O)c1 | 9.33 | 166 | – |
| CC(NC(=O)CNC(=O)OC(C)(C)C)C(=O)NC(Cc1ccccc1)C(=O)OCc1ccccc1 (stereo not drawn) (Boc-Gly-Ala-Phe-OBn; configuration not given here) | > 200 | 77.6 | – |
| O=C(OCCCl)c1ccccc1NC(=O)N1CCOCC1 | – | – | inactive |
| O=C1OC2(O)c3ccccc3C(=O)N2N2CCCCC12 (stereo unspecified) | > 646 | > 646 | – |
| C=C1C[C@@H]2O[C@H]3[C@H]4[C@@H](C[C@@H](C)[C@@H](OC(C)=O)[C@H]42)[C@@H](C)CO[C@@]3(C)[C@H](OC(=O)CCCCCCC)C[C@H]1O | > 200 | 11 | – |
| O=C(Nc1ccc([N+](=O)[O-])cc1[N+](=O)[O-])C(=O)C(C(=O)c1ccc(Cl)c(Cl)c1)C1OC(=O)c2ccccc21 (stereo unspecified) | > 89.1 | 28.8 | – |
| OC(c1ccccc1)C1CC2C=CC1C2 (stereo unspecified) | – | – | inactive |
| C1CSCCSCSCCS1 | > 44.7 | > 44.7 | – |

| SMILES | EC50 [µM] | IC50 [µM] | outcome |
| --- | --- | --- | --- |
| N#CC(/C(=N\NC(=O)c1ccncc1)C(=O)Nc1ccc([N+](=O)[O-])cc1[N+](=O)[O-])c1nc(-c2ccc(Br)cc2)cs1 (stereo unspecified) | > 389 | > 389 | – |
| CC(=O)Oc1ccc2c(c1)Cc1cc(N=[N+]([O-])c3ccc4c(c3)Cc3cc(OC(C)=O)ccc3-4)ccc1-2 | > 200 | > 200 | – |
| Nc1ccc(Nc2nc(F)nc(-c3c4ccccc4c4n3CCS4)n2)cc1 | > 7.24 | 3.63 | – |
| C=CCN(CCNS(=O)(=O)c1ccc(C)cc1)S(=O)(=O)c1ccc(C)cc1 | > 33.1 | > 33.1 | – |
| O=C1c2cccc3cccc(c23)C(=O)N1c1nccs1 | > 50.1 | > 50.1 | – |
| CC(C)(C)[Si](C)(C)OC1/C(=C/C#N)C(n2ccc(=O)[nH]c2=O)OC1CO (stereo unspecified) | > 200 | > 200 | – |
| O=C(CC1C(=O)Nc2ccccc2S1(=O)=O)Nc1cccc(Cl)c1 (stereo unspecified) | > 27.5 | > 27.5 | – |
| O=C(CSc1nc(-c2ccccc2)c(-c2ccccc2)[nH]1)N/N=C/c1ccc(Cl)cc1 | > 20.9 | 12 | – |
| CC1c2c(cc(=O)n(C)c2O)C(=O)N1Cc1ccccc1 (stereo unspecified) | > 347 | 257 | – |
| CC1=C\[C@@H](O)CC(=O)Cc2nc(co2)C(=O)N2CCC=C2C(=O)O[C@H](C(C)C)[C@H](C)/C=C/C(=O)NC\C=C\1 | > 9.77 | > 9.77 | – |
| O=S(=O)(c1ccccc1)C(Cl)c1cccc(Cl)c1 (stereo unspecified) | > 63.1 | > 63.1 | – |
| CN1CCN(c2[nH]c(=O)n(-c3ccccc3)c(=S)c2C#N)CC1 | > 200 | > 200 | – |
| Cc1c2c(nc3ccccc13)C(=O)c1cccnc1C2=O | > 100 | 13.5 | – |
| COc1ccc(NC(=O)CC(=O)N2N=C(N(c3ccccc3)c3ccccc3)CC2c2ccccc2)cc1 (stereo unspecified) | – | – | inactive |
| COc1ccc([N+](=O)[O-])c(/C(C#N)=C/c2ccccc2)c1 | > 200 | 12.3 | – |
| O=NC1C2CCC(C2)C1N=O.[Co].[c-]1[c-][c-][cH-][c-]1 (stereo unspecified) | > 200 | 49 | – |
| CC[N+]12CN3CN(CN(C3)C1)C2 | > 851 | 437 | – |
| CSc1n[n+]2c(s1)SCCC2 | > 759 | 58.9 | – |
| c1ccc(CNCCCNCCCCNCCCNCc2ccccc2)cc1 | > 15.1 | 1.62 | – |
| C=CCCCC[P+](c1ccccc1)(c1ccccc1)c1ccccc1 | > 20 | 1.45 | – |
| CCCCNC(=O)/N=C/c1c(O)c2ccccc2oc1=O | > 91.2 | 58.9 | – |
| COc1cc(C(=O)N2C[C@H](O)C[C@H]2C(=O)O)cc(OC)c1OC | > 200 | > 200 | – |
| O=C1c2ccccc2[Se](=O)N1c1ccccc1 (stereo unspecified) | 1.17 | 14.1 | – |
| CC(NC(=O)CNP(=O)(c1ccccc1)c1ccccc1)C(=O)NC(Cc1ccccc1)C(=O)OCc1ccccc1 (stereo unspecified) | > 200 | 20.4 | – |
| CC(=O)O[C@]1(C)C(=O)OC2C1C(OC(=O)C=C(C)C)C[C@](C)(OC(C)=O)[C@H]1[C@H](O)C=C(C)[C@@H]21 (stereo partly specified) | > 269 | 10 | – |
| NNC(=O)/C(=C/c1ccc(Cl)c(Cl)c1)NC(=O)c1ccccc1 | > 141 | > 141 | – |
